The text below walks through data of publication PMC8444262, “α-Mangostin Induces Apoptosis and Inhibits Metastasis of Breast Cancer Cells via Regulating RXRα-AKT Signaling Pathway” (Frontiers in Pharmacology, 2021).

This experiment deals with T1, RXRα (Homo sapiens, UniProt P19793).
T1 construct: gene RXRA; RXRα-LBD
T1 sequence (P19793 198-462): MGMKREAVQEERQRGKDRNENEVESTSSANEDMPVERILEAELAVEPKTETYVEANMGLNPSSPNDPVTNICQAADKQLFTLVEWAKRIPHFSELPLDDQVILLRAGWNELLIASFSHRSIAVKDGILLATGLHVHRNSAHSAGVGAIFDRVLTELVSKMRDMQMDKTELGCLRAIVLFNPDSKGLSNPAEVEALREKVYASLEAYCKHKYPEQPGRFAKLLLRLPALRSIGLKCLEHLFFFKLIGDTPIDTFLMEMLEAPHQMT
The experiment in a line: SPR (Biacore S200, immobilized RXRα-LBD); supported by antagonism of 9-cis-RA in GAL4-RXRα-LBD reporter assay. It counts as binding.

Molecules are shown by their SMILES.

On to `COc1c(O)cc2oc3cc(O)c(CC=C(C)C)c(O)c3c(=O)c2c1CC=C(C)C` [compound 3, α-Mangostin], for which the Kd was 39 µM.
